According to US11466016B2, “Pharmaceutical compounds” (priority 2018, dated 2022):
Structures can show the parent of a compound that is named as a salt.

Biological target: SHP2 (Homo sapiens (Human), UniProt Q06124)
Test: SHP2 Biochemical Assay (DiFMUP conversion, pIRS1 activating peptide)
Conditions: not given

SHP2, sequence (Q06124 whole entry): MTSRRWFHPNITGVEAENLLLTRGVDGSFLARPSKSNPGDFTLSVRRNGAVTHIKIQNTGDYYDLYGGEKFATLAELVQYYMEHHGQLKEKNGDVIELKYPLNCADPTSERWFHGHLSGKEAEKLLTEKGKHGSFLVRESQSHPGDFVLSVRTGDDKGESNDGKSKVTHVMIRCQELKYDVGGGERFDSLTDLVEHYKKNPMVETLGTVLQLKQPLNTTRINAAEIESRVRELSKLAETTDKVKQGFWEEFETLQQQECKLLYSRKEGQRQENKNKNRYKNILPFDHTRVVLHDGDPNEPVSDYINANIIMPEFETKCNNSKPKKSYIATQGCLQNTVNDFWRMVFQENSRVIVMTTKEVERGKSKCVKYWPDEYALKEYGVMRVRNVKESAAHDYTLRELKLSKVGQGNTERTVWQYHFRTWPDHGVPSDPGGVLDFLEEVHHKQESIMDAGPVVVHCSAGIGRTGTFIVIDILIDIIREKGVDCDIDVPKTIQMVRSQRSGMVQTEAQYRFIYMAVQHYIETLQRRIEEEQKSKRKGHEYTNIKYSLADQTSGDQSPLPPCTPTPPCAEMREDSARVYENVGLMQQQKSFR

| SMILES | IC50 [nM] |
| --- | --- |
| Cc1nc2ccc(-c3n[nH]c4nc(N5[C@H]6CC[C@@H]5[C@@H](F)[C@@H](N)C6)c(CO)nc34)c(Cl)c2s1 [Example 98, {6-[(1R,2S,3S,5S)-3-amino-2-fluoro-8-azabicyclo[3.2.1]octan-8-yl]-3-(7-chloro-2-methyl-1,3-benzothiazol-6-yl)-1H-pyrazolo[3,4-b]pyrazin-5-yl}methanol] | 4 |

Same assay, conditions: DiFMUP substrate, 0.25 μM pIRS1 peptide, 30 min pre-incubation; average where more than one data point; read-out: SHP2 (IC50)

| SMILES | IC50 [nM] |
| --- | --- |
| Cn1nc2ccc(-c3n[nH]c4nc(N5[C@@H]6CC[C@H]5[C@@H](F)[C@@H](N)C6)c(CO)nc34)c(F)c2c1Cl [Example 87, {6-[(1S,2S,3S,5R)-3-amino-2-fluoro-8-azabicyclo[3.2.1]octan-8-yl]-3-(3-chloro-4-fluoro-2-methyl-2H-indazol-5-yl)-1H-pyrazolo[3,4-b]pyrazin-5-yl}methanol] | 8 |
| Cn1nc2ccc(-c3n[nH]c4nc(N5[C@@H]6CC[C@H]5C[C@@H](N)C6)c(CO)nc34)c(Cl)c2c1Cl [Example 88, {6-[endo-3-amino-8-azabicyclo[3.2.1]octan-8-yl]-3-(3,4-dichloro-2-methyl-2H-indazol-5-yl)-1H-pyrazolo[3,4-b]pyrazin-5-yl}methanol] | 7.1 |
| Cc1nc2c(-c3ccc4nn(C)cc4c3Cl)n[nH]c2nc1N1C2CCCC1CNC2 [Example 91, 4-Chloro-5-(6-{3,9-diazabicyclo[3.3.1]nonan-9-yl}-5-methyl-1H-pyrazolo[3,4-b]pyrazin-3-yl)-2-methyl-2H-indazole, hydrochloride salt] | 22 |
| CCn1cc2c(Cl)c(-c3n[nH]c4nc(N5[C@H]6CC[C@@H]5[C@@H](F)[C@@H](N)C6)c(C)nc34)ccc2n1 [Example 92, (1R,2S,3S,5S)-8-[3-(4-Chloro-2-ethyl-2H-indazol-5-yl)-5-methyl-1H-pyrazolo[3,4-b]pyrazin-6-yl]-2-fluoro-8-azabicyclo[3.2.1]octan-3-amine] | 8.3 |
| Cc1nc2c(-c3ccc4nn(C)c(Cl)c4c3Cl)n[nH]c2nc1N1[C@H]2CC[C@@H]1[C@@H](F)[C@@H](N)C2 [Example 93, (1R,2S,3S,5S)-8-[3-(3,4-Dichloro-2-methyl-2H-indazol-5-yl)-5-methyl-1H-pyrazolo[3,4-b]pyrazin-6-yl]-2-fluoro-8-azabicyclo[3.2.1]octan-3-amine] | 3.6 |
| Cc1nc2c(-c3ccc4nn(C)cc4c3Cl)n[nH]c2nc1N1CCC2(CC1)CNC2 [Example 94, 7-[3-(4-Chloro-2-methyl-2H-indazol-5-yl)-5-methyl-1H-pyrazolo[3,4-b]pyrazin-6-yl]-2,7-diazaspiro[3.5]nonane] | 70 |
| COc1cnc2ccc(-c3n[nH]c4nc(N5[C@H]6CC[C@@H]5[C@@H](F)[C@@H](N)C6)c(C)nc34)c(Cl)c2n1 [Example 95, (1R,2S,3S,5S)-8-[3-(5-chloro-3-methoxyquinoxalin-6-yl)-5-methyl-1H-pyrazolo[3,4-b]pyrazin-6-yl]-2-fluoro-8-azabicyclo[3.2.1]octan-3-amine] | 3 |
| Cc1nc2c(-c3ccc4ncc(N(C)C)nc4c3Cl)n[nH]c2nc1N1[C@H]2CC[C@@H]1[C@@H](F)[C@@H](N)C2 [Example 96, 7-{6-[(1R,2S,3S,5S)-3-amino-2-fluoro-8-azabicyclo[3.2.1]octan-8-yl]-5-methyl-1H-pyrazolo[3,4-b]pyrazin-3-yl}-8-chloro-N,N-dimethylquinoxalin-2-amine] | 4.7 |
| COc1cc2c(Cl)c(-c3n[nH]c4nc(N5[C@H]6CC[C@@H]5[C@@H](F)[C@@H](N)C6)c(CO)nc34)ccc2nc1C [Example 100, {6-[(1R,2S,3S,5S)-3-amino-2-fluoro-8-azabicyclo[3.2.1]octan-8-yl]-3-(5-chloro-3-methoxy-2-methylquinolin-6-yl)-1H-pyrazolo[3,4-b]pyrazin-5-yl}methanol] | 12 |

Same assay, conditions: at 0.010 uM

| SMILES | SHP2 (percent at stated concentration) [%@0.010 uM] |
| --- | --- |
| Cc1c2c(Cl)c(-c3n[nH]c4nc(N5[C@H]6CC[C@@H]5[C@@H](F)[C@@H](N)C6)c(CO)nc34)ccc2nn1C [Example 99, {6-[(1R,2S,3S,5S)-3-amino-2-fluoro-8-azabicyclo[3.2.1]octan-8-yl]-3-(4-chloro-2,3-dimethyl-2H-indazol-5-yl)-1H-pyrazolo[3,4-b]pyrazin-5-yl}methanol] | 45 |
